According to US20060276416A1, “Methods and compositions for treating flushing and drug induced weight gain” (Sirtris Pharmaceuticals, Inc., priority 2005, published 2006):

Tests used:
recombinant human SIRT1 = molecular target: T1, recombinant human SIRT1 (Homo sapiens, UniProt Q96EB6); assay: SIRT1 fluorescent deacetylation assay (p53-382 acetylated peptide); format: biochemical
T1 sequence (Q96EB6 1-747): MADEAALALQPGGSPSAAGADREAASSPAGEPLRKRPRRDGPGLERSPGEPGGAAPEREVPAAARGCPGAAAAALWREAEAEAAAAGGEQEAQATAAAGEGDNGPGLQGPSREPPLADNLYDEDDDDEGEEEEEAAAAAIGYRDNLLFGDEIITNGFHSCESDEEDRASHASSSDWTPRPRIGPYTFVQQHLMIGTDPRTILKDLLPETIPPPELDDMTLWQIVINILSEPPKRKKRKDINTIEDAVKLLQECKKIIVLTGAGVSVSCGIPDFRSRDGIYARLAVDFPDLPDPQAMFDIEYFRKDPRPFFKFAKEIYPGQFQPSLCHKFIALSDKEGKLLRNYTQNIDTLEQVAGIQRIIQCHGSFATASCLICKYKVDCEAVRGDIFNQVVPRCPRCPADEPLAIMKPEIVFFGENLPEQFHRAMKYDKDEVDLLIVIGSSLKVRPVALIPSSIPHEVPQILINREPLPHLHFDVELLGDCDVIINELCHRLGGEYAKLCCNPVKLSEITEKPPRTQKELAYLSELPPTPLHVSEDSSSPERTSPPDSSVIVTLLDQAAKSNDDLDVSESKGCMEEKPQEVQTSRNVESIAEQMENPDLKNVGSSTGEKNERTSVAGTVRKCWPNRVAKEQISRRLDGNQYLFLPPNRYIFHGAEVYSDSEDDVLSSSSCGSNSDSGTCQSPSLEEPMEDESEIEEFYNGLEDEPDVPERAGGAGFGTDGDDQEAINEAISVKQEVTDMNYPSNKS
Description: To identify compounds that modulate SIRT1 activity, a number of small molecule libraries were screened using a fluorescent deacetylation assay in 96-well plates^26. The substrate used in the assay was a fluorogenic peptide based on the sequence encompassing the p53-K382 acetylation site, a known target of SIRT1 in vivo^20,21,27. […] The small molecule libraries included analogues of nicotinamide, ε-acetyl lysine, NAD^+, nucleotides, nucleotide analogues and purinergic ligands.
From 0.1 to 1 μg of SIRT1 and 1.5 μg of Sir2 were used per deacetylation assay (in 50 μl total reaction) as previously described^26. SIRT1 assays and certain of those for Sir2 employed the p53-382 acetylated substrate (‘Fluor de Lys-SIRT1’, BIOMOL) rather than FdL.
Themed compound libraries (BIOMOL) were used for primary and secondary screening. Most polyphenol compounds were dissolved at 10 mM in dimethylsulfoxide (DMSO) on the day of the assay. For water soluble compounds and negative controls, 1% v/v DMSO was added to the assay. In vitro fluorescence assay results were read in white ½-volume 96-well microplates (Corning Costar 3693) with a CytoFluor™ II fluorescence plate reader (PerSeptive Biosystems, Ex. 360 nm, Em. 460 nm, gain=85). […] Unless otherwise indicated all initial rate measurements were means of three or more replicates, obtained with single incubation times, at which point 5% or less of the substrate initially present had been deacetylated. Calculation of net fluorescence increases included subtraction of a blank value, which in the case of Sir2 was obtained by omitting the enzyme from the reaction and in the case of SIRT1 by adding an inhibitor (200 μM suramin or 1 mM nicotinamide) to the reaction prior to the acetylated substrate. A number of the polyphenols partially quenched the fluorescence produced in the assay and correction factors were obtained by determining the fluorescence increase due to a 3 μM spike of an FdL deacetylated standard (BIOMOL, catalog number KI-142). All error bars represent the standard error of the mean.
All SIRT1 rate measurements used in the calculation of “Ratio to Control Rate” were obtained with 25 μM NAD^+ and 25 μM p53-382 acetylated peptide substrate were performed as described above and in K. T. Howitz et al. Nature (2003) 425: 191. All ratio data were calculated from experiments in which the total deacetylation in the control reaction was 0.25-1.25 μM peptide or 1-5% of the initial concentration of acetylated peptide.

Human 293 = assay: Survival of 293 cells (Coulter counter); format: cell-based; conditions: 50 micromolar
Description: The number of live cells each time point was counted using a Coulter counter.

C. elegans = C. elegans fat accumulation, Nile Red staining; format: in vivo; conditions: 100 μM
Description: Fat accumulation was visualized with Nile Red staining, as described further below and in Ashrafi K, et al. Nature 421:268-27 (2003).
Synchronized starved L1 worms were grown in the presence of Nile Red. Strains were grown on NGM plates at 25° C. for approximately 48 hours until the young adult stage was reached. 20-30 young adult worms were then washed 2× with M9 buffer and transferred to new NGM/Nile red experimental plates that contained either OP50 or HTT5 E. coli carrying the L4440 RNAi control vector.
Young adults were transferred to plates containing the appropriate vector, Nile Red stain and drug then maintained at 25° C.
Nile Red: Nile Red Powder (Sigma #N-3013) was dissolved in acetone at 500 μg/ml, diluted in 1× Phosphate Buffered Saline (PBS) including appropriate drug and applied to surface of Nematode Growth Media (NGM) plates previously seeded with OP50 or RNAi bacteria, at a final concentration of 0.05 μg/ml. Fat content was monitored and recorded by fluorescence microscopy.

HeLa S3 cells = assay: Cellular deacetylase assay (TSA-insensitive FdL deacetylation); format: cell-based, human; conditions: 500 μM compound, 200 μM FdL, 1 μM TSA, 1 hour
Description: FdL (200 μM) is added to growth media and cells incubated for 1-3 hours to allow FdL to enter the cells and the lysine-deacetylated product (deAc-FdL) to accumulate intracellularly. Cells are lysed with detergent in the presence of 1 μM TSA, 1 mM nicotinamide. Addition of the non-cell-permeable Developer (BIOMOL) releases a fluorophor, specifically from deAc-FdL. b, SIRT1 activating polyphenols can stimulate TSA-insensitive, FdL deacetylation by HeLa S3 cells. Cells were grown adherently in DMEM/10% FCS and treated for 1 hour with 200 μM FdL, 1 μM TSA and either vehicle (0.5% final DMSO, Control) or 500 μM of the indicated compound. Intracellular accumulation of deAc-FdL was then determined as described briefly in a. […] Lysates were prepared and analyzed as above. […]
Themed compound libraries (BIOMOL) were used for primary and secondary screening. […] In vitro fluorescence assay results were read in white ½-volume 96-well microplates (Corning Costar 3693) with a CytoFluor™ II fluorescence plate reader (PerSeptive Biosystems, Ex. 360 nm, Em. 460 nm, gain=85). HeLa cells were grown and the cellular deacetylation assays were performed and read, as above, but in full-volume 96-well microplates (Corning Costar 3595). […]

Row | Structure (SMILES) | v1/v2 (rate for pure SIRT1/BML-230 divided by that for pure SIRT1/resveratrol) (recombinant human SIRT1; R at 500 μM) | Stimulated SIRT1 activity compared with resveratrol (recombinant human SIRT1; all concentrations tested, 25 μM NAD+ and p53-382 peptide, 20 minutes) | Dissociation constant of SIRT1 complex compared with SIRT1/resveratrol (recombinant human SIRT1; inferred from two state model) | Toxicity on 293 cells (in words) (Human 293) | Fat staining (C. elegans; 24 hours, control 1% v/v DMSO) | Effect on the cellular (TSA-insensitive) deacetylation signal (HeLa S3 cells) | Fat mobilization (C. elegans; 48 hours)
1 | CSc1ccc(/C=C/c2cc(O)cc(O)c2)cc1 [BML-230, 3,5-dihydroxy-4′-thiomethyl-trans-stilbene] | ≤ 1.4 | exceeds | lower dissociation constant | The results indicate that thiomethyl (BML-230) was the least toxic on 293 cells. | Significant reduction | – | –
2 | O=C(/C=C/c1ccc(O)c(O)c1)c1ccc(O)cc1O [butein, 3,4,2′,4′-Tetrahydroxychalcone] | – | – | – | – | – | no effect | stimulate fat mobilization
